Series [1] relates to Mouse colon cancer, Colon 26. Briefly: Antitumor activity test for combretastatin A4 conjugate. The class given is in vivo. The following applies: for relative tumor volume based on non-treatment group: 200 mg/kg in terms of combretastatin A4, once into tail vein. From the text: Mouse colon cancer, Colon 26, maintained by serial subcutaneous subculture in mice, was minced into about 2-mm cubic fragments, and the fragments were subcutaneously transplanted on the dorsal part of female CDF1 mice with a trocar. Eight days after the tumor transplantation, the polymer conjugate according to the invention (Compound 22) or a control drug (combretastatin A4 phosphate ester; CA4P, PEG-Glu-CA4 or PEG-Asp-CA4) was each administered once into the mouse tail vein in a way such that each mouse received the same dose per body weight in terms of combretastatin A4. Each compound was dissolved in a 5% aqueous glucose solution and used.
After the administration, the major axis (L mm) and the minor axis (W mm) of the tumor were measured using a caliper, and the tumor volume was calculated by the formula (L×W^2)/2.

Series [2] has as its system heart muscle. Briefly: Effect of combretastatin A4 conjugate on heart muscle (plasma CPK). The series is classed as in vivo, mouse. The following applies: for creatinine phosphokinase (CPK) in plasma, average: 200 mg/kg once into tail vein. From the text: Combretastatins are known to have a side effect of causing a myocardial damage. As such, by following a change in efficacy of creatinine phosphokinase (CPK) that is released into blood when enzymes abundantly present in heart muscles or neurons are damaged, the degree of side effect of the compounds according to the invention was compared to those of known compounds.
To a non-treated female CDF1 mouse, Compound 22 as a compound of the invention and CA4P, PEG-Glu-CA4, and PEG-Asp-CA4 as a comparative compound were each administered once into the mouse tail vein. Six hours and 24 hours after the administration, three animals per each group were anesthetized with ether and blood was taken from abdominal aorta. Creatinine phosphokinase (CPK) contained in plasma was measured.

In series [3] the test system is Mouse colon cancer, Colon 26. Briefly: Antitumor activity test for docetaxel conjugate. The following applies: 100 mg/kg in terms of docetaxel, once into tail vein. The series is classed as in vivo. From the text: Mouse colon cancer, Colon 26, maintained by serial subcutaneous subculture in mice, was minced into about 2-mm cubic fragments, and the fragments were subcutaneously transplanted on the dorsal part of female CDF1 mice with a trocar. Eight days after the tumor transplantation, the polymer conjugate according to the invention (Compound 30) or a control drug (docetaxel; DTX or PEG-Asp-DTX) was each administered once into the mouse tail vein in a way such that each mouse received the same dose per body weight in terms of docetaxel. Docetaxel was dissolved in anhydrous ethanol and cremophor (manufactured by Sigma Corporation), and diluted with physiological saline at the time of use. Other compounds were dissolved in a 5% aqueous glucose solution for injection and used. After the administration, the major axis (L mm) and the minor axis (W mm) of the tumor were measured using a caliper, and the tumor volume was calculated by the formula (L×W^2)/2.

Regarding `COc1ccc(/C=C\c2cc(OC)c(OC)c(OC)c2)cc1OP(=O)(O)O` [CA4P, combretastatin A4 phosphate ester], the “relative tumor volume based on non-treatment group” value in series [1] (day 0 after administration) was 1.00; in series [1] (day 2 after administration) it was 0.72; in series [1] (day 4 after administration), 0.82; in series [1] (day 6 after administration), 0.80; in series [1] (day 8 after administration), 0.80. Besides, the “antitumor activity (in words)” value in series [1] (dose of 200 mg/kg) is on record as “weak antitumor activity”. The “creatinine phosphokinase (CPK) in plasma, average” value was 400-500 IU/L in series [2] (6 hours after administration) and “≦200 IU/L” in series [2] (24 hours after administration). In series [2] (dose of 200 mg/kg), the “CPK change (in words)” value is given as “CPK increase was significant”.
Consider docetaxel [DTX], for which the “relative tumor volume based on non-treatment group” value came to 1.00 in series [3] (day 0 after administration); 0.50 in series [3] (day 3 after administration); 0.32 in series [3] (day 5 after administration); 0.37 in series [3] (day 9 after administration); 0.35 in series [3] (day 12 after administration).

Source of the values: patent US8808749B2, “Polymer conjugate of bioactive substance having hydroxy group” (priority 2009, dated 2014).
